{"source": "patent US9156872B2", "about": "“2′-azido substituted nucleoside derivatives and methods of use thereof for the treatment of viral diseases” (priority 2011, dated 2015)", "tested_on": "HCV replicon cells", "assay": "Cell-based HCV replicon assay (replicon RNA by Taqman real time PCR)", "conditions": "read-out: 1b EC50", "note": "Where two headings read alike, the source gives them in different places.", "data": [{"smiles": "CCCCOC(=O)[C@H](C)NP(=O)(OC[C@H]1O[C@@H](n2cnc3c(OCC)nc(N)nc32)[C@](C)(N=[N+]=[N-])[C@@H]1O)Oc1ccc2c(c1)OCO2", "note": "(stereo partly drawn) [Compound 371]", "values": [{"measurement": "EC50", "setting": "Hepatitis C virus, 72 h", "value": 1400, "unit": "nM"}]}, {"smiles": "C[C@H](NP(=O)(OC[C@H]1O[C@@H](n2ccc(N)nc2=O)[C@](C)(N=[N+]=[N-])[C@@H]1O)Oc1ccccc1Cl)C(=O)OCC(C)(C)C", "note": "(single isomer, unassigned) [Compound 182]", "values": [{"measurement": "EC50", "value": 12000, "unit": "nM"}]}, {"smiles": "CCOC(=O)[C@H](C)NP(=O)(OC[C@H]1O[C@@H](n2cnc3c(OC)nc(N)nc32)[C@](C)(N=[N+]=[N-])[C@@H]1O)Oc1ccc(Cl)cc1", "note": "(single isomer, unassigned) [Compound 290]", "values": [{"measurement": "EC50", "value": 800, "unit": "nM"}]}, {"smiles": "COC(=O)[C@H](C)NP(=O)(OC)OC[C@H]1O[C@@H](n2ccc(N)nc2=O)[C@](C)(N=[N+]=[N-])[C@@H]1O", "note": "(single isomer, unassigned) [Compound 345]", "values": [{"measurement": "EC50", "setting": "Hepatitis C virus, 72 h", "value": "> 100000", "unit": "nM"}]}, {"smiles": "CCOC(=O)[C@H](C)NP(=O)(OC[C@H]1O[C@@H](n2ccc(=O)[nH]c2=O)[C@](C)(N=[N+]=[N-])[C@@H]1O)Oc1ccccc1", "note": "(stereo partly drawn) [Compound 15]", "values": [{"measurement": "EC50", "setting": "Hepatitis C virus, 72 h", "value": 1400, "unit": "nM"}]}, {"smiles": "CCCCOC(=O)[C@H](C)NP(=O)(OC[C@H]1O[C@@H](n2cnc3c(OCC)nc(N)nc32)[C@](C)(N=[N+]=[N-])[C@@H]1O)Oc1ccc(Cl)cc1", "note": "(stereo partly drawn) [Compound 368]", "values": [{"measurement": "EC50", "setting": "Hepatitis C virus, 72 h", "value": 80, "unit": "nM"}]}, {"smiles": "COC(=O)[C@H](C)NP(=O)(OC[C@H]1O[C@@H](n2cnc3c(OC)nc(N)nc32)[C@](C)(N=[N+]=[N-])[C@@H]1O)Oc1ccc(Cl)cc1", "note": "(single isomer, unassigned) [Compound 258]", "values": [{"measurement": "EC50", "setting": "Hepatitis C virus, 72 h", "value": 800, "unit": "nM"}]}, {"smiles": "CC(C)COC(=O)[C@H](C)NP(=O)(OC[C@H]1O[C@@H](n2ccc(=O)[nH]c2=O)[C@](C)(N=[N+]=[N-])[C@@H]1O)Oc1ccccc1", "note": "(single isomer, unassigned) [Compound 211]", "values": [{"measurement": "EC50", "value": 800, "unit": "nM"}]}, {"smiles": "COC(=O)[C@H](C)NP(=O)(OC[C@H]1O[C@@H](n2ccc(N)nc2=O)[C@](C)(N=[N+]=[N-])[C@@H]1O)Oc1ccc(Cl)c(Cl)c1", "note": "(single isomer, unassigned) [Compound 344]", "values": [{"measurement": "EC50", "value": 35000, "unit": "nM"}]}, {"smiles": "C[C@H](NP(=O)(OC[C@H]1O[C@@H](n2ccc(=O)[nH]c2=O)[C@](C)(N=[N+]=[N-])[C@@H]1O)Oc1ccccc1)C(=O)O[C@H](C)c1ccccc1", "note": "(single isomer, unassigned) [Compound 302]", "values": [{"measurement": "EC50", "setting": "Hepatitis C virus, 72 h", "value": 24900, "unit": "nM"}]}, {"smiles": "CCOc1nc(N)nc2c1ncn2[C@@H]1O[C@H](COP(=O)(N[C@@H](C)C(=O)OC)Oc2ccccc2)[C@@H](O)[C@@]1(C)N=[N+]=[N-]", "note": "(single isomer, unassigned) [Compound 143]", "values": [{"measurement": "EC50", "value": 600, "unit": "nM"}]}, {"smiles": "CCOc1nc(N)nc2c1ncn2[C@@H]1O[C@H](COP(=O)(N[C@@H](C)C(=O)OC)Oc2ccc(F)cc2)[C@@H](O)[C@@]1(C)N=[N+]=[N-]", "note": "(single isomer, unassigned) [Compound 174]", "values": [{"measurement": "EC50", "value": 500, "unit": "nM"}]}, {"smiles": "C[C@H](NP(=O)(OC[C@H]1O[C@@H](n2ccc(N)nc2=O)[C@](C)(N=[N+]=[N-])[C@@H]1O)Oc1ccccc1Cl)C(=O)OCC(C)(C)C", "note": "(single isomer, unassigned) [Compound 181]", "values": [{"measurement": "EC50", "value": 3800, "unit": "nM"}]}, {"smiles": "CCOC(=O)[C@H](C)NP(=O)(OC[C@H]1O[C@@H](n2ccc(N)nc2=O)[C@](C)(N=[N+]=[N-])[C@@H]1O)Oc1ccc(Cl)cc1", "note": "(stereo partly drawn) [Compound 198]", "values": [{"measurement": "EC50", "setting": "Hepatitis C virus, 72 h", "value": 600, "unit": "nM"}]}, {"smiles": "C[C@H](NP(=O)(OC[C@H]1O[C@@H](n2ccc(N)nc2=O)[C@](C)(N=[N+]=[N-])[C@@H]1O)Oc1ccc(F)cc1)C(=O)OC1CCCCC1", "note": "(stereo partly drawn) [Compound 197]", "values": [{"measurement": "EC50", "setting": "Hepatitis C virus, 72 h", "value": 400, "unit": "nM"}]}, {"smiles": "CCCOC(=O)[C@H](C)N[P@@](=O)(OC[C@H]1O[C@@H](n2ccc(=O)[nH]c2=O)[C@](C)(N=[N+]=[N-])[C@@H]1O)Oc1cccc2ccccc12", "note": "(single isomer, unassigned) [Compound 375]", "values": [{"measurement": "EC50", "setting": "Hepatitis C virus, 72 h", "value": 800, "unit": "nM"}]}, {"smiles": "CCOc1nc(N)nc2c1ncn2[C@@H]1O[C@@H]2COP(=O)(OC)O[C@H]2[C@@]1(C)N=[N+]=[N-]", "note": "(stereo partly drawn) [Compound 25]", "values": [{"measurement": "EC50", "setting": "Hepatitis C virus, 72 h", "value": 13000, "unit": "nM"}]}, {"smiles": "CCOc1nc(N)nc2c1ncn2[C@@H]1O[C@@H]2COP(=O)(OC3CCCCC3)O[C@H]2[C@@]1(C)N=[N+]=[N-]", "note": "(stereo partly drawn) [Compound 106]", "values": [{"measurement": "EC50", "setting": "Hepatitis C virus, 72 h, HCV replicon 1b, cells harvested on day 3", "value": 49900, "unit": "nM"}]}]}
